From patent US10208020B2, “Substituted amino triazoles useful as human chitinase inhibitors” (OncoArendi Therapeutics S.A., priority 2015, dated 2019) come the findings set out here.

Bounds are passed on as bounds.

The target of one test is recombinant human AMCase (Homo sapiens (Human), UniProt Q9BZP6). The test is described as follows: Human AMCase activity assay. Conditions: citrate buffer pH 5.2, 37° C., 60 minutes; 4-methylumbelliferyl B-D-N,N′-diacetylchitobioside substrate; read-out: Activity on hAMCase, IC50. The test is classed as biochemical.
Sequence of recombinant human AMCase (Q9BZP6 22-476): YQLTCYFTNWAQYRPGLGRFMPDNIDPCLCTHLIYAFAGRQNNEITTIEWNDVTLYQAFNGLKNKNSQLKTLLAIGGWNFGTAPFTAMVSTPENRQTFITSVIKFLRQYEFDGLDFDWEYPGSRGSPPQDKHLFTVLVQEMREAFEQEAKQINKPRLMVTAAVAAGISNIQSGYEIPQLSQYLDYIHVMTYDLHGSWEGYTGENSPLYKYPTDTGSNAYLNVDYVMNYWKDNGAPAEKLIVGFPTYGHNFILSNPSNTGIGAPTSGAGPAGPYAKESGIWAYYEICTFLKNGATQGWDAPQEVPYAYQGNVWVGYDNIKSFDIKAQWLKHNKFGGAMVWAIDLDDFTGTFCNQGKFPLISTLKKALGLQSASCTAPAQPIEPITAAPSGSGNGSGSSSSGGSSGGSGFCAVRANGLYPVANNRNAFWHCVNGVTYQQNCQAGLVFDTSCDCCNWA
The target in the next test is recombinant human CHIT1 (Homo sapiens (Human), UniProt Q13231). The test is described as follows: Human CHIT1 activity assay. The test is classed as biochemical. The following applies: citrate buffer pH 5.2, 37° C., 60 minutes; 4-methylumbelliferyl β-D-N,N′,N″-triacetylchitotriose substrate; read-out: Activity on hCHIT1, IC50.
Sequence of recombinant human CHIT1 (Q13231 22-466): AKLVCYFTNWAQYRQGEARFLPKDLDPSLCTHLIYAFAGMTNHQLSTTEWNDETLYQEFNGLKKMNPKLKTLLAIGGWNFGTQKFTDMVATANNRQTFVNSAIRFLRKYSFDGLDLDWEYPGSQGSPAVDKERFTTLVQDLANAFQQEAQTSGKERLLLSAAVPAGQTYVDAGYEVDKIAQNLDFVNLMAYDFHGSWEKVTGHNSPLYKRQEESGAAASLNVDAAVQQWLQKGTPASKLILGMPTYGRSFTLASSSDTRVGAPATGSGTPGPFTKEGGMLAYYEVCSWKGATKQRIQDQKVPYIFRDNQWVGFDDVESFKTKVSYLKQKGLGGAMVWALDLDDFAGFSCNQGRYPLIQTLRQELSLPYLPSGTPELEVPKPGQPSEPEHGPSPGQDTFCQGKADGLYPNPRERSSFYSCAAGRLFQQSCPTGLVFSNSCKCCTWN

Regarding `CCOC[C@H]1CN(C2CCN(c3nnc(N)[nH]3)CC2)[C@@H](Cc2ccc(Cl)cc2)CO1` [Example 11, 5-(4-((2R,5S)-5-(4-chlorobenzyl)-2-(ethoxymethyl)morpholino)piperidin-1-yl)-4H-1,2,4-triazol-3-amine], on recombinant human AMCase, the IC50 was less than 100 nM.

Turning to `CC1(C(=O)O)CC[C@H](Cc2ccc(Cl)cc2)N(C2CCN(c3nnc(N)[nH]3)CC2)C1` (stereo partly drawn) [Example 18, (6R)-1′-(5-amino-4H-1,2,4-triazol-3-yl)-6-(4-chlorobenzyl)-3-methyl-[1,4′-bipiperidine]-3-carboxylic acid], the IC50 on recombinant human CHIT1 is 1000 to 10000 nM.

In the case of `Nc1nnc(N2CCC(N3CCOC[C@@H]3Cc3ccc(Br)cc3)CC2)[nH]1` [Example 3, (S)-5-(4-(3-(4-bromobenzyl)morpholino)piperidin-1-yl)-4H-1,2,4-triazol-3-amine], on recombinant human CHIT1, the IC50 was less than 100 nM.

As to `Nc1nnc(N2CCC(N3C[C@@H]4CCCN4C[C@@H]3Cc3ccc(Cl)cc3)CC2)[nH]1` [Example 49, 5-(4-((3S,8aS)-3-(4-chlorobenzyl)hexahydropyrrolo[1,2-a]pyrazin-2(1H)-yl)piperidin-1-yl)-4H-1,2,4-triazol-3-amine], the figures for the 50% inhibitory concentration (IC50) at recombinant human AMCase and at recombinant human CHIT1 were less than 100 nM and 1000 to 10000 nM, respectively.

Consider `COC(=O)N1C[C@H](Cc2ccc(Cl)cc2)N(C2CCN(c3nnc(N)[nH]3)CC2)C[C@@H]1C` [Example 39, methyl (2S,5S)-4-(1-(5-amino-4H-1,2,4-triazol-3-yl)piperidin-4-yl)-5-(4-chlorobenzyl)-2-methylpiperazine-1-carboxylate], for which, on recombinant human CHIT1, the concentration for half-maximal inhibition (IC50) is 10000 to 100000 nM.

As for `COC(C)(C)[C@H]1CN(C2CCN(c3nnc(N)[nH]3)CC2)[C@@H](Cc2ccc(Cl)cc2)CO1` [Example 14, 5-(4-((2R,5S)-5-(4-chlorobenzyl)-2-(2-methoxypropan-2-yl)morpholino)piperidin-1-yl)-4H-1,2,4-triazol-3-amine], the IC50 on recombinant human AMCase and at recombinant human CHIT1 was less than 100 nM throughout.

With `Nc1nnc(N2CCC(N3CCCC[C@@H]3Cc3ccc(Cl)cc3)CC2)[nH]1` [Example 15, (R)-5-(2-(4-chlorobenzyl)-[1,4′-bipiperidin]-1′-yl)-4H-1,2,4-triazol-3-amine], the IC50 at recombinant human CHIT1 was less than 100 nM.

On to `C[C@H]1CN(C2CCN(c3nnc(N)[nH]3)CC2)[C@@H](Cc2ccc(Cl)cc2)CN1CC(=O)O` [Example 41, 2-((2S,5S)-4-(1-(5-amino-4H-1,2,4-triazol-3-yl)piperidin-4-yl)-5-(4-chlorobenzyl)-2-methylpiperazin-1-yl)acetic acid], for which the results for the IC50 at recombinant human AMCase and at recombinant human CHIT1 were less than 100 nM and 100 to 1000 nM, respectively.

For `C[C@H]1CN(C2CCN(c3nnc(N)[nH]3)CC2)[C@@H](Cc2ccc(Cl)cc2)CN1S(C)(=O)=O` [Example 37, 5-(4-((2S,5S)-2-(4-chlorobenzyl)-5-methyl-4-(methylsulfonyl)piperazin-1-yl)piperidin-1-yl)-4H-1,2,4-triazol-3-amine], the IC50 on recombinant human CHIT1 lay within 10000 to 100000 nM.

Consider `CCOC(=O)C1CC[C@H](Cc2ccc(Cl)cc2)N(C2CCN(c3nnc(N)[nH]3)CC2)C1` (stereo partly drawn) [Example 16, ethyl (6R)-1′-(5-amino-4H-1,2,4-triazol-3-yl)-6-(4-chlorobenzyl)-[1,4′-bipiperidine]-3-carboxylate], for which, on recombinant human CHIT1, the IC50 was less than 100 nM.

For the compound `Cc1ccc(S(=O)(=O)N2CCN(C3CCN(c4nnc(N)[nH]4)CC3)[C@@H](Cc3ccc(Cl)cc3)C2)cc1` [Example 35, (S)-5-(4-(2-(4-chlorobenzyl)-4-tosylpiperazin-1-yl)piperidin-1-yl)-4H-1,2,4-triazol-3-amine], the IC50 at recombinant human CHIT1 was 10000 to 100000 nM.

Turning to `Nc1nnc(N2CCC(N3CC(C(=O)O)CC[C@@H]3Cc3ccc(Cl)cc3)CC2)[nH]1` (stereo partly drawn) [Example 17, (6R)-1′-(5-amino-4H-1,2,4-triazol-3-yl)-6-(4-chlorobenzyl)-[1,4′-bipiperidine]-3-carboxylic acid], the IC50 at recombinant human CHIT1 was in the range of 100 to 1000 nM.

As to `Nc1nnc(N2CCC(N3CCOC[C@@H]3Cc3ccc(Cl)cc3)CC2)[nH]1` [Example 1, (S)-5-(4-(3-(4-chlorobenzyl)morpholino)piperidin-1-yl)-4H-1,2,4-triazol-3-amine], on recombinant human CHIT1, the IC50 was less than 100 nM.

As to `COC(=O)CN1C[C@H](Cc2ccc(Cl)cc2)N(C2CCN(c3nnc(N)[nH]3)CC2)C[C@@H]1C` [Example 40, methyl 2-((2S,5S)-4-(1-(5-amino-4H-1,2,4-triazol-3-yl)piperidin-4-yl)-5-(4-chlorobenzyl)-2-methylpiperazin-1-yl)acetate], the IC50 was less than 100 nM on recombinant human AMCase and 100 to 1000 nM at recombinant human CHIT1.

For the compound `C[C@H]1CN(C2CCN(c3nnc(N)[nH]3)CC2)[C@@H](Cc2ccc(Cl)cc2)C(C)(C)O1` [Example 53, 5-(4-((3S,6S)-3-(4-chlorobenzyl)-2,2,6-trimethylmorpholino)piperidin-1-yl)-4H-1,2,4-triazol-3-amine], the IC50 on recombinant human CHIT1 was 10000 to 100000 nM.
